Entries after “also recorded” stand apart in the source; their conditions may differ. Read-outs that look alike come from different tables or passages of the source.
Assays:
[1] = High throughput Caco-2 permeability; type: in vitro ADME; conditions: human, 10 μmol/l, 2 h, 37° C.
Method: High throughput Caco-2 permeability was performed in the TranswellR 0.4 μm polycarbonate membrane 96-well system with modified methods. Caco-2 cells were maintained at 37° C. in a humidified incubator with an atmosphere of 5% CO2. The cells were cultured in 75 cm^2 flasks with Dulbecco's Modified Eagle's Medium (DMEM) containing 10% (v/v) FBS, 1% (v/v) non-essential amino acids (NEAA), 100 units/ml of penicillin, and 100 μg/ml of streptomycin. The Caco-2 cells were seeded onto inserts at a density of 2×10^4 cells/insert separately. The medium in the wells was exchanged each other day, and the trans epithelial electrical resistance (TEER) value was measured using an epithelial voltohm meter (Millipore, Billerica, Massachusetts). […] For transport experiments, each cultured monolayer on the 96-well plate was washed twice with a transport buffer (HBSS containing 25 mM HEPES, pH 7.4). The permeability assay was initiated by the addition of each compound solution (10 μmol/l) into inserts (apical side, A) or receivers (basolateral side, B). The Caco-2 cell monolayers were incubated for 2 h at 37° C. Fractions were collected from receivers (if apical to basal permeability) or inserts (if basal to apical permeability), and concentrations were assessed by UPLC/MS (Waters; Milford, MA). All compounds were tested in triplicates. The A→B (or B→A) apparent permeability coefficients (Papp) of each compound were calculated using the equation, Papp=dQ/dt×1/AC0, where dQ/dt equals the flux of a drug across the monolayer, A equals the total insert well surface area, and C0 is the initial concentration of substrate in the donor compartment. The efflux ratio was determined by dividing the Papp in the B-A direction by the Papp in the A-B direction.

[2] = system: PCF11 protein levels in HEK293FT cells; test: PCF11 degradation by MAGE-A11, immunoblotting in HEK293FT cells; type: cell-based; conditions: 24 hours
Method: Cell culture and stable cell lines. HEK293FT, HeLa and DAOY cells were grown in DMEM (Gibco) supplemented with 10% (v/v) FBS (Hyclone), 2 mM L-glutamine, 100 units/ml penicillin, 100 units/ml streptomycin, and […] amphotericin B (Invitrogen). HEK293FT and DAOY cells were transfected with either HA-FLAG-vector, FLAG-MAGE-A11 wild-type or SBC mutants using Effectene (QIAGEN) according to the manufacturer's protocol in 6 cm^2 plates. After 48 hours, cells were selected with 1 μg/ml puromycin (Sigma) over 2 weeks.
(§1) Western Blotting and Antibodies. For western blotting, samples in SDS sample buffer were resolved on SDS-PAGE gels and then transferred to nitrocellulose membranes prior to blocking in TBST with 5% (w/v) milk powder or 3% (w/v) bovine serum albumin and probing with primary and secondary antibodies (GE Healthcare). Primary antibodies were: anti-Myc (Sigma, #C3956), anti-FLAG (Sigma, #F3165), anti-HUWE1 (Novus Biologicals, #NB 100-652), anti-PCF11 (Bethyl Laboratories, #A303-706A), anti-GAPDH (Cell Signaling Technology, #2118), anti-TRIM28 (Abcam, #ab22553), anti-AMPKa1 (Cell Signaling Technology, #2795) and anti-MMS19 (Proteintech, #16015-1-AP). Protein signal was visualized after addition of ECL detection reagent (GE Healthcare) according to manufacturer's instructions.

[3] = system: MAGE-A11-knockout DAOY cells or those reconstituted with MAGE-A11; test: Cell viability alamarBlue assay, DAOY cells; type: cell-based; conditions: MAGE-A11 expressing DAOY cells versus MAGE-A11-negative cells, 24 hours, listed as SJ521054
Method: (§2) Cell viability Assay. To assess cell viability after SJ521054 treatment, 1×10^4 cells/ml were treated with SJ521054 (0-40 μM) and incubated for 24 hours prior to changing the media and adding alamarBlue (Thermo Fisher Scientific) and incubating for 4 hours at 37° C. Plates were read by measuring the fluorescence with excitation wavelength at 540 nm and emission wavelength at 590 nm on an Enspire plate reader.

[4] = system: HEK293FT cells stably expressing FLAG-vector or FLAG-MAGE-A11; test: Cell viability alamarBlue assay, HEK293FT cells; type: cell-based; conditions: MAGE-A11 expressing HEK293FT cells versus vector control, 24 hours, listed as SJ521054
Method: as §2

[5] = molecular target: MAGE-A11 binding to PCF11 in FLAG-MAGE-A11 HEK293FT cell lysates (Homo sapiens (Human), UniProt P43364); test: anti-FLAG pull-down (co-IP) of MAGE-A11:PCF11 in cell lysates; conditions: 100 μM, 24 hours, immunoblot for endogenous PCF11, listed as SJ521054
Method: Immunoprecipitation. HEK293FT cells were plated in 6 cm^2 plates and transfected 24 hours later with Effectene (QIAGEN) according to the manufacturer's protocol. After 48 hours, cells were washed and scraped in cold PBS, spun down and resuspended in lysis buffer (50 mM Tris pH 7.4, 150 mM NaCl, 1 mM DTT, 0.1% (v/v) Triton X-100, 10 mM N-Ethylmaleimide and 1× protease inhibitor cocktail (Sigma)). Cell lysates were incubated with appropriate antibodies overnight at 4° C. and then with protein A beads for 2 hours at 4° C. Beads were then washed with lysis buffer three times and eluted with 2×SDS sample buffer.
as §1

MAGE-A11 binding to PCF11 in FLAG-MAGE-A11 HEK293FT cell lysates, sequence (P43364 whole entry): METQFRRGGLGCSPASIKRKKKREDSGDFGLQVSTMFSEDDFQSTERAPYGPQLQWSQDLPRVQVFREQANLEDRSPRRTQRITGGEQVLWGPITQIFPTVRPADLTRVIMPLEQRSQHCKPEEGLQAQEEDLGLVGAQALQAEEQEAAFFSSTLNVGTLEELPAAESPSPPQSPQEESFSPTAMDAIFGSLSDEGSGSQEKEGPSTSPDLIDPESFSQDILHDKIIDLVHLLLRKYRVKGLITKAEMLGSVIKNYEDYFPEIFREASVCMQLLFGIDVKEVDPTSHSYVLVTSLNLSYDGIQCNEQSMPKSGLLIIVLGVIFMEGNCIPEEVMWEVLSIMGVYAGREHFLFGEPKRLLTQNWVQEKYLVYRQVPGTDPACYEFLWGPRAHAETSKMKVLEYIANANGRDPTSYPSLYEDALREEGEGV

**Q.** Which results are given for FC(F)(F)c1ccc2c(NCCCNCc3ccc4[nH]ccc4c3)ccnc2c1 [SJ000521054-02, N^1-((1H-Indol-5-yl)methyl)-N^3-(7-(trifluoromethyl)quinolin-4-yl)propane-1,3-diamine]?
**A.** Papp at 2 h, 10 μmol/l ([1]; Caco-2, pH 7.4, apical to basolateral, read-out: Caco-2 permeability, A/B): 11.5 ×10⁻⁶ cm/s; Papp at 2 h, 10 μmol/l ([1]; Caco-2, pH 7.4, basolateral to apical, read-out: Caco-2 permeability, B/A): 14.2 ×10⁻⁶ cm/s; PCF11 protein levels / PCF11 degradation by MAGE-A11 ([2]; MAGE-A11 expressing HEK293FT cells, listed as SJ521054): blocks PCF11 degradation by MAGE-A11; also recorded: stabilized PCF11 protein levels; PCF11 protein levels ([2]; vector control HEK293FT cells): no effect; cell viability [3]: reduces viability of MAGE-A11 expressing DAOY cancer cells; also recorded: decreased the viability; cell viability [4]: decreased the viability; also recorded: reduces viability of MAGE-A11 expressing HEK293FT cells; MAGE-A11 binding to PCF11 in cell lysate (co-IP) [5]: inhibited MAGE-A11 binding to PCF11 in cell lysates

Reference: patent US20240246941A1, “SUBSTITUTED 4-(3-AMINOPROP-1-YL)AMINOQUINOLINE ANALOGS AS MODULATORS OF MELANOMA-ASSOCIATED ANTIGEN 11 UBIQUITIN LIGASE” (ST. JUDE CHILDREN'S RESEARCH HOSPITAL, INC., priority 2020, published 2024)
